{
  "source": "patent US20260242320A1",
  "about": "“USE OF CANNABIDIOL DERIVATIVE IN PREPARATION OF MEDICAMENT” (priority 2023, published 2026)",
  "key": {"[1]": {"assay": "Pharmacokinetic profiles in brain and plasma after oral administration", "assay_type": "in vivo, mice", "protocol": "Following administration, mice (BALB/c, male, 20-25 g) were sacrificed at 0.5, 1, 2, 3, and 4 h. The blood and brain tissue were collected and extracted with acetonitrile."}, "BV-2 cells": {"tested_on": "BV-2 cells", "assay": "Cellular ATP assay", "assay_type": "cell-based", "details": "10 μM, 2 h", "protocol": "BV-2 cells were seeded at a density of 5×10^5 cells per well in 6-well plates and incubated for 24 h. BV-2 cells were treated with 10 μM CIAC001 or 10 μM Compound 19b for 2 h. Cellular ATP was measured by an enhanced ATP assay kit (S0027-4, Beyotime Biotechnology Co., Ltd., Shanghai, China)."}, "morphine-dependent mice": {"tested_on": "morphine-dependent mice", "assay": "Naloxone-precipitated morphine withdrawal jumps", "assay_type": "in vivo", "details": "2 μg/kg, 20 μg/kg, 0.2 mg/kg i.p., 0.2 mg/kg", "protocol": "Mice were intraperitoneally injected with an escalating dose of morphine three times daily for 3 days (5, 20, and 40 mg/kg) to induce addiction. On the fourth day, mice were given morphine (40 mg/kg) or vehicle (5 mL/kg). […] The withdrawal was precipitated by naloxone. Each mouse was placed into a transparent plastic box immediately, and the number of jumps was recorded for 15 min."}, "[2]": {"assay": "Y-maze test of short-term memory", "assay_type": "in vivo, mice", "details": "CIAC001 20 mg/kg i.p.; THC 10 mg/kg i.p.", "protocol": "Mice were tested for short-term memory using a Y-maze task. Briefly, mice were placed into the Y-maze for 10 min once daily to habituate the apparatus for two consecutive days. After daily habituation, the mice were then treated with CIAC001 (20 mg/kg) or THC (10 mg/kg). On the 3rd day, mice were pretreated with CIAC001 or THC 45 min before the Y-maze test. Next, the “new arm” was blocked, and mice had 5 min to freely explore two arms (the “start arm” and the “old arm”, FIG. 8F). Mice were then removed from the Y-maze and placed into the cages for 2 min. During the test phase, mice were allowed to freely explore all three arms for 2 min, and the time spent in each arm was recorded and analyzed using the Noldus analyzing software. To eliminate olfactory interference, the Y-maze was wiped off with 70% alcohol after each test."}, "[3]": {"tested_on": "microglial activation marker Iba1", "assay": "Iba1 immunofluorescence staining of brain sections", "assay_type": "in vivo, mice", "details": "chronic morphine", "protocol": "Mice were anesthetized with tribromoethanol following the CPP assay and intracardially perfused with 8 mL saline; the brains were then stripped out and embedded in paraffin. The brain was sectioned coronally at 5 μm thickness on a vibrating microtome. Paraffin-processed tissues were deparaffinized in xylene and rehydrated with a graded alcohol solution. The sections were placed in 0.01 M citrate buffer (pH 6.0) and heated in a microwave oven for hot antigen repair. These sections were incubated with goat serum for 20 min at 37° C. and then with rabbit anti-Iba1 monoclonal antibody at 4° C. overnight. After three washes with PBS, the sections were incubated with an Alexa-488-conjugated secondary antibody for 1 h in the dark. Ultimately, followed by three washes with PBS twice for 5 min each, the sections were counterstained with DAPI and examined under a confocal microscope"}, "lactate in BV-2 culture": {"tested_on": "lactate in BV-2 culture", "assay": "Extracellular lactic acid assay", "assay_type": "cell-based", "details": "BV-2, 10 μM, LPS 200 ng/mL, 12 h", "protocol": "BV-2 cells were seeded at a density of 5×10^5 cells per well in 6-well plates and incubated for 24 h. BV-2 cells were treated with 10 μM CIAC001 or 10 μM Compound 19b in the absence or presence of 200 ng/mL LPS for 12 h. Culture medium was collected and centrifuged (5000 g, 4° C.) for 5 min. The supernates were used for lactic acid contents determination by lactic acid assay kit (A019-2-1, Nanjing Jiancheng Bioengineering Institute)."}, "Tau, TrkB, Syn1, Aβ": {"tested_on": "Tau, TrkB, Syn1, Aβ", "assay": "Western blot of Alzheimer's disease markers in mouse hippocampus", "assay_type": "in vivo", "details": "transgene mice, 0, 0.2, 2, or 20 mg/kg", "protocol": "The protein samples from the mouse hippocampus were analyzed for Tau5, p-Tau (T231), p-Tau (S202), p-Tau (S404), p-TrkB (Y705), Syn1, Aβ1-42, and Aβ1-16 protein content using Western blot technique."}},
  "note": "“Also recorded” adds a separate entry of the source.",
  "data": [
    {"smiles": "C=C(C)[C@@H]1CCC(C)=C[C@H]1c1c(O)cc(C(C)n2nccn2)cc1O", "note": "(stereo partly drawn) [CIAC001, (1′R,2′R)-4-(1-(2H-1,2,3-Triazol-2-yl)ethyl)-5′-methyl-2′-(prop-1-en-2-yl)-1′,2′,3′,4′-tetrahydro-[1,1′-biphenyl]-2,6-diol]", "values": [
      {"measurement": "AUC0→t", "setting": "[1]; brain, 10 mg/kg p.o., mice", "result": 172.8, "unit": "ng·h/g"},
      {"measurement": "AUC0→∞", "setting": "[1]; brain, 10 mg/kg p.o., mice", "result": 191.3, "unit": "ng·h/g"},
      {"measurement": "MRT", "setting": "[1]; brain, 10 mg/kg p.o., mice", "result": 54, "unit": "min"},
      {"measurement": "brain Cmax", "setting": "[1]; brain, 10 mg/kg p.o., mice", "result": 175.0, "unit": "ng/g"},
      {"measurement": "t1/2", "setting": "[1]; brain, 10 mg/kg p.o., mice", "result": 48, "unit": "min"},
      {"measurement": "Kp", "setting": "[1]; male, BALB/c, mouse, brain / plasma, oral, 10 mg/kg p.o., read-out: B/P ratios within the first 3 h after administration", "result": "> 2"},
      {"measurement": "Kp at 0.5 h", "setting": "[1]; male, BALB/c, mouse, brain / plasma, po, 0.5 h, 10 mg/kg p.o., read-out: B/P ratio", "result": "3.31 ± 0.382"},
      {"measurement": "Kp at 1 h", "setting": "[1]; male, BALB/c, mouse, brain / plasma, po, 1 h, 10 mg/kg p.o., read-out: B/P ratio", "result": "3.63 ± 0.425"},
      {"measurement": "Kp at 2 h", "setting": "[1]; male, BALB/c, mouse, brain / plasma, po, 2 h, 10 mg/kg p.o., read-out: B/P ratio", "result": "4.12 ± 1.44"},
      {"measurement": "Kp at 3 h", "setting": "[1]; male, BALB/c, mouse, brain / plasma, po, 3 h, 10 mg/kg p.o., read-out: B/P ratio", "result": "5.76 ± 1.34"},
      {"measurement": "Tmax", "setting": "[1]; male, BALB/c, mouse, po, brain, 10 mg/kg p.o., mice, read-out: Tmax", "result": 18, "unit": "min"},
      {"measurement": "BBB permeability and CNS pharmacokinetics compared to CBD", "setting": "[1]; oral administration", "result": "better BBB permeability and CNS pharmacokinetics"},
      {"measurement": "brain Cmax relative to CBD", "setting": "[1]; vs CBD, 10 mg/kg p.o.", "result": "approximately 2 times"},
      {"measurement": "ATP level", "setting": "BV-2 cells", "result": "increase the ATP level"},
      {"measurement": "naloxone-precipitated withdrawal jumps", "setting": "morphine-dependent mice", "result": "dose-dependently attenuated; also recorded: ameliorated"},
      {"measurement": "time spent on the new arm (Y maze)", "setting": "[2]", "result": "did not affect the time mice spent on the new arm"},
      {"measurement": "expression of Iba1 in the mPFC", "setting": "[3]", "result": "decreased the expression of Iba1"},
      {"measurement": "LPS-induced lactate release", "setting": "lactate in BV-2 culture", "result": "significantly inhibited"},
      {"measurement": "Syn1 and Aβ levels", "setting": "Tau, TrkB, Syn1, Aβ", "result": "reduces Syn1 and Aβ levels"},
      {"measurement": "Tau and TrkB phosphorylation", "setting": "Tau, TrkB, Syn1, Aβ", "result": "inhibits Tau and TrkB phosphorylation"}
    ]}
  ]
}
